Literature values as cited in US6689399B1, “Transdermal delivery of an anti-inflammatory composition” (priority 2000, dated 2004).

Tests used:
[1] = three trials, capsaicin cream (two 0.025%, one 0.075%) four times daily for four weeks; placebo 16%
[2] = single trial, 0.075% capsaicin cream four times daily for six weeks; 5/13; placebo 10%
[3] = single trial, 0.075% capsaicin cream three or four times daily for three weeks; 4/16; placebo 6%
[4] = four trials, 0.025% capsaicin cream four times daily for 6-8 weeks; placebo 42%
[5] = four trials, 0.075% capsaicin cream four times daily for 4-8 weeks; placebo 49%

In the case of `COc1cc(CNC(=O)CCCC/C=C/C(C)C)ccc1O` [capsaicin, trans-8-methyl-N-vanillyl-6-nonenamide], the “patients responding to capsaicin, osteoarthritis” value [1] is listed as 45%, the “patients reporting pain relief, postmastectomy pain” value [2] is listed as 38% and the “patients reporting pain relief, postherpetic neuralgia” value [3] is listed as 25%. The “patients responding to capsaicin, psoriasis” value [4] was 68% and the “patients responding to capsaicin, diabetic neuropathy” value [5] was 73%.
